Test results as given in paper PMC8620390, “New Multi-Targeted Antiproliferative Agents: Design and Synthesis of IC261-Based Oxindoles as Potential Tubulin, CK1 and EGFR Inhibitors” (Pharmaceuticals, 2021).

Legend:
[1] = tested on: COLO-205; assay: Two-dose antiproliferative screening, SRB assay, COLO-205; type: cell-based, human; settings: triplicates; for inhibition at 1 µM / inhibition at 10 µM: Homo sapiens, COLO 205, 72 h; for inhibition at 1 µM: read-out: Growth Inhibition (%) COLO-205 1 μM Average; for inhibition at 10 µM: read-out: Growth Inhibition (%) COLO-205 10 μM Average; for Growth Inhibition (%) COLO-205 10 μM Average: 72 h
Experimental: (§1) MCF-7(breast adenocarcinoma), PC-3 (prostate cancer) and COLO-205 (colorectal cancer) were obtained from Nawah Scientific inc., (Mokatam, Cairo, Egypt). Cells were maintained in Dulbecco’s Modified Eagle’s media (DMEM media) supplemented with […] of streptomycin, 100 units/mL of penicillin and 10% of heat-inactivated fetal bovine serum in humidified, 5% (v/v) CO2 atmosphere at 37 °C.
(§2) Cell viability was assessed by the sulforhodamine B (SRB) assay. Aliquots of cell suspension (5 × 10^3 cells, 100 μL) were transferred into 96 well plates and incubated in complete media for 24 h. Cells were treated with another aliquot media (100 μL) containing compounds 3a–f, 4a–f, 6a–f, 7a–f, 9a–b at concentrations of 1 and 10 μM). After 72 h of drug exposure, cells were fixed by replacing media with trichloroacetic acid (TCA, 10%, 150 μL) and incubated at 4 °C for 1 h. The TCA solution was removed, and the cells were washed five times with distilled water. Aliquots of SRB solution (0.4%w/v, 70 μL) were added and incubated in a dark place at room temperature for 10 min. Plates were washed three times with 1% acetic acid and allowed to air dry overnight. Then, a solution of TRIS base and TRIS HCl (TRIS buffer, 10 mM, 150 μL) was added to dissolve protein bound SRB stain. The absorbance was measured at 540 nm using BMGLABTECH®–FLUOstar omega micro-plate reader (Ortenberg, Germany).

[2] = tested on: PC-3; assay: Two-dose antiproliferative screening, SRB assay, PC-3; type: cell-based; settings: triplicates; for inhibition at 1 µM / inhibition at 10 µM: Homo sapiens, PC-3, 72 h; for inhibition at 1 µM: read-out: Growth Inhibition (%) PC-3 1 μM Average; for inhibition at 10 µM: read-out: Growth Inhibition (%) PC-3 10 μM Average; for Growth Inhibition (%) PC-3 10 μM Average: 72 h
Experimental: as §1, §2

[3] = tested on: MCF-7; assay: Two-dose antiproliferative screening, SRB assay, MCF-7; type: cell-based; settings: Homo sapiens, MCF7, 72 h, triplicates; for inhibition at 1 µM: read-out: Growth Inhibition (%) MCF-7 1 μM Average; for inhibition at 10 µM: read-out: Growth Inhibition (%) MCF-7 10 μM Average
Experimental: as §1, §2

[4] = tested on: COLO-205; assay: IC50 against COLO-205, SRB assay; type: cell-based; settings: Homo sapiens, 0.001–100 μM
Experimental: as §2
The same procedures used to screen two-dose anticancer activities were applied in determining IC50 values against COLO-205 using SRB assay. Cells were maintained at Roswell Park Memorial Institute media (RPMI media). The test was performed using 0.001–100 μM of compounds 4a (IC261), 4b, 4d, 4e, 6e and 6f. IC50 values were calculated using the equation for Boltzman sigmoidal concentration–response curve using the nonlinear regression fitting models by GraphPad, Prism version 5 (GraphPad Software Inc., La Jolla, CA, USA).

Row | melting point [°C] | IC50 [4] [µM] | Structure (SMILES) | inhibition at 1 µM [1] [%] | inhibition at 10 µM [1] [%] | inhibition at 1 µM [2] [%] | inhibition at 10 µM [2] [%] | inhibition at 1 µM [3] [%] | inhibition at 10 µM [3] [%] | Growth Inhibition (%) PC-3 10 μM Average [2] [%] | Growth Inhibition (%) COLO-205 10 μM Average [1] [%]
1 | – | – | COc1cc(/C=C2/C(=O)Nc3ccccc32)cc(OC)c1OC [Compound 3a, (E)-3-(3,4,5-trimethoxybenzylidene)indolin-2-one] | 1.18 | 4.71 | 1.92 | 20.4 | 1.17 | 3.44 | – | –
2 | – | – | COc1cc(/C=C2/C(=O)Nc3cc(Cl)ccc32)cc(OC)c1OC [Compound 3b, (E)-6-chloro-3-(3,4,5-trimethoxybenzylidene)indolin-2-one] | 5.7 | 32.6 | 7.69 | 39 | 1.14 | 41.2 | – | –
3 | – | – | COc1cc(/C=C2/C(=O)Nc3ccc(Cl)cc32)cc(OC)c1OC [Compound 3c, (E)-5-chloro-3-(3,4,5-trimethoxybenzylidene)indolin-2-one] | 2.86 | 6.41 | 1.42 | 14.3 | 1.06 | 8.56 | – | –
4 | – | – | COc1cc(/C=C2/C(=O)Nc3ccc(F)cc32)cc(OC)c1OC [Compound 3d, (E)-5-fluoro-3-(3,4,5-trimethoxybenzylidene)indolin-2-one] | 7.01 | 11.8 | 2.02 | 1.91 | 0.98 | 3.6 | – | –
5 | – | – | COc1ccc2c(c1)/C(=C\c1cc(OC)c(OC)c(OC)c1)C(=O)N2 [Compound 3e, (E)-5-methoxy-3-(3,4,5-trimethoxybenzylidene)indolin-2-one] | 2.34 | 18.6 | 32.9 | 52 to 72 | 21 | 65.3 | 61.38 | –
6 | – | – | COc1cc(/C=C2/C(=O)Nc3ncccc32)cc(OC)c1OC [Compound 3f, (E)-3-(3,4,5-trimethoxybenzylidene)-1,3-dihydro-2H-pyrrolo[2,3-b] pyridin-2-one] | 1.52 | 9.13 | 1.29 | 3.57 | 0.36 | 4.53 | – | –
7 | 244 to 247 | – | COc1cc(OC)c(/C=C2/C(=O)Nc3ccc(Cl)cc32)c(OC)c1 [Compound 4c, (E)-5-chloro-3-(2,4,6-trimethoxybenzylidene)indolin-2-one] | 2.67 | 58 | 28.9 | 62.2 | 17.9 | 65.1 | – | 58.44
8 | – | – | COc1cc(OC)c(/C=C2/C(=O)Nc3ncccc32)c(OC)c1 [Compound 4f, (E)-3-(2,4,6-trimethoxybenzylidene)-1,3-dihydro-2H-pyrrolo[2,3-b] pyridin-2-one] | 7.64 | 63.8 | 23 | 69.1 | 11.5 | 65.8 | – | –
9 | – | – | COc1cc(/C=C2/C(=O)N(Cc3ccccc3)c3ccccc32)cc(OC)c1OC [Compound 6a, (E)-1-Benzyl-3-(3,4,5-trimethoxybenzylidene)indolin-2-one] | 2.46 | 4.97 | 4.3 | 5.03 | 1.74 | 48.5 | – | –
10 | – | – | COc1cc(/C=C2/C(=O)N(Cc3ccc(Cl)cc3)c3ccccc32)cc(OC)c1OC [Compound 6b, (E)-1-(4-Chlorobenzyl)-3-(3,4,5-trimethoxybenzylidene)indolin-2-one] | 3.9 | 45.8 | 1.04 | 28.9 | 1.13 | 32.2 | – | –
11 | – | – | COc1cc(/C=C2/C(=O)N(Cc3ccc(F)cc3)c3ccccc32)cc(OC)c1OC [Compound 6c, (E)-1-(4-Fluorobenzyl)-3-(3,4,5-trimethoxybenzylidene)indolin-2-one] | 4.66 | 13.6 | 0.69 | 8.22 | 5.68 | 25 | – | –
12 | – | – | COc1cc(/C=C2/C(=O)N(Cc3ccccc3)c3cc(Cl)ccc32)cc(OC)c1OC [Compound 6d, (E)-1-benzyl-6-chloro-3-(3,4,5-trimethoxybenzylidene)indolin-2-one] | 2.38 | 8.68 | 4.24 | 7.34 | 0.68 | 48.4 | – | –
13 | – | 15.3 | COc1cc(/C=C2/C(=O)N(Cc3ccc(Cl)cc3)c3cc(Cl)ccc32)cc(OC)c1OC [Compound 6e, (E)-6-chloro-1-(4-chlorobenzyl)-3-(3,4,5-trimethoxybenzylidene) indolin-2-one] | 6.49 | 72.6 | 3.22 | 5.65 | 3.69 | 6 | – | –
14 | – | 10.6 | COc1cc(/C=C2/C(=O)N(Cc3ccc(F)cc3)c3cc(Cl)ccc32)cc(OC)c1OC [Compound 6f, (E)-6-chloro-1-(4-fluorobenzyl)-3-(3,4,5-trimethoxybenzylidene) indolin-2-one] | 3.67 | 63.8 | 0.4 | 23.4 | 3.56 | 29.9 | – | –
15 | – | – | COc1cc(OC)c(/C=C2/C(=O)N(Cc3ccccc3)c3ccccc32)c(OC)c1 [Compound 7a, (E)-1-benzyl-3-(2,4,6-trimethoxybenzylidene)indolin-2-one] | 11.9 | 20 | 0.65 | 8.59 | 0.6 | 15.3 | – | –
16 | – | – | COc1cc(OC)c(/C=C2/C(=O)N(Cc3ccc(Cl)cc3)c3ccccc32)c(OC)c1 [Compound 7b, (E)-1-(4-chlorobenzyl)-3-(2,4,6-trimethoxybenzylidene)indolin-2-one] | 3 | 3.33 | 1.05 | 3.15 | 3.81 | 5.48 | – | –
17 | – | – | COc1cc(OC)c(/C=C2/C(=O)N(Cc3ccc(F)cc3)c3ccccc32)c(OC)c1 [Compound 7c, (E)-1-(4-fluorobenzyl)-3-(2,4,6-trimethoxybenzylidene)indolin-2-one] | 4.66 | 18.3 | 0.89 | 13.8 | 4.08 | 25.9 | – | –
18 | – | – | COc1cc(OC)c(/C=C2/C(=O)N(Cc3ccccc3)c3cc(Cl)ccc32)c(OC)c1 [Compound 7d, (E)-1-benzyl-6-chloro-3-(2,4,6-trimethoxybenzylidene)indolin-2-one] | 2.38 | 15.6 | 1.47 | 19.9 | 0.49 | 40.5 | – | –
19 | – | – | COc1cc(OC)c(/C=C2/C(=O)N(Cc3ccc(Cl)cc3)c3cc(Cl)ccc32)c(OC)c1 [Compound 7e, (E)-6-chloro-1-(4-chlorobenzyl)-3-(2,4,6-trimethoxybenzylidene) indolin-2-one] | 3.82 | 22.1 | 1.77 | 52 to 72 | 1.59 | 46.2 | 51.68 | –
20 | – | – | COc1cc(OC)c(/C=C2/C(=O)N(Cc3ccc(F)cc3)c3cc(Cl)ccc32)c(OC)c1 [Compound 7f, (E)-6-chloro-1-(4-fluorobenzyl)-3-(2,4,6-trimethoxybenzylidene) indolin-2-one] | 3.33 | – | 0.75 | 7.08 | 10.3 | 16 | – | 3.97
